Reference: patent publication US6620853B1, “Methods and compositions for prevention and treatment of restenosis with non-steroidal anti-inflammatory drugs” (Mount Sinai School of Medicine, priority 1998, dated 2003)

What was measured:
cyclooxygenase = settings: Adv. Drug Res. 1977, 12:90-245; cited from earlier work
[1] = tested on: HT-29 human colon adenocarcinoma cells; settings: cited from earlier work
ApoE-deficient mice = assay: Atherosclerotic lesions and plasma cholesterol in ApoE-deficient mice on western diet; format: in vivo, mouse; settings: ApoE-deficient mice maintained on a western diet
Excerpt: The Apo-E deficient mouse is the first mouse model of atherosclerosis with pathology similar to that of human atherosclerosis (Cell 1992, 71:343-353). Serum cholesterol levels in the mice maintained on a chow diet are five times higher than those of control littermates. Apo-E, which is made primarily in the liver, is a surface constituent of lipoprotein particles and a ligand for lipoprotein recognition and clearance by lipoprotein receptors (Science 1996, 272:685-688). ApoE-deficient mice have delayed clearance of lipoproteins, and on a low-cholesterol, low-fat diet, their cholesterol levels reach 400 to 600 mg/dl as a result of accumulation of chylomicron and very low-density lipoprotein (VLDL) remnants enriched in esterified and free cholesterol (Circulation 1993, 88:A9). These mice develop not only fatty streaks but also widespread fibrous plaque lesions at vascular sites typically affected in human atherosclerosis (Arterioscier. Thromb. 1994, 14;1873). Lesions form at the base of the aorta and the lesser curvature of the thoracic aorta, at the branch points of the carotid, intercostal, mesenteric, renal and iliac arteries, and in the proximal coronary, carotid, femoral, subclavian, and brachiocephalic arteries. Lesions begin at 5 to 6 weeks of age with monocyte attachment to the endothelium in lesion-prone areas and transendothelial migration. Fatty streak lesions begin to appear at 10 weeks, and intermediate lesions containing foam cells and spindle-shaped smooth muscle cells appear at 15 weeks. Fibrous plaques appear after 20 weeks and consist of a necrotic core covered by a fibrous cap of smooth muscle cells surrounded by elastic fibers and collagen. In older mice, fibrous plaques progress. In some advanced lesions there is partial destruction of underlying medial cells with occasional aneurysm formation, and in others calcification occurs in the fibrous tissue. Extensive fibro-proliferation can narrow the lumen, even to the point of occlusion of vessels.
Atherosclerosis can be exacerbated by a high-cholesterol or high-fat diet. This effect is mimicked in the ApoE-deficient mice when these mice are fed a western-type diet as described below in Section 6.
The Apolipoprotein E knock-out mouse model is a valuable animal model to test the effect of NSAIDs on apoptosis, proliferation, quiescence, migration and differentiation of cells that contribute to atherosclerosis. ApoE is an apoprotein on the surface of atherogenic lipoproteins that serves as a ligand for certain receptors in key tissues. ApoE-induced signaling via these receptors, particularly by the hepatic LDL receptor, induces the removal of ApoE-containing lipoprotein particles from the plasma. […]

[2] = tested on: HCT-15 cultured colon cancer cell line; settings: Biochem. Pharmacol. 1996, 52:237-245; cited from earlier work
ApoE-knockout mice = format: in vivo, mouse; settings: Western Diet with Sulindac (300 mg/kg) for 17 weeks, examined four weeks after injury; vs control group
Excerpt: We have developed a new mouse model of studying restenosis, in which the injury of the femoral artery is accomplished by the manipulation of wire stent which is introduced into the femoral artery first and then removed.
Briefly, the mouse is anesthetized with pentobarbital and the femoral artery is exposed by cutting the skin in the femoral region carefully. An angioplastz guide wire obtained from Advanced Cardiovascular Systems, Tameaila, Calif. of approximately 100 mm in length and 0.25 mm in diameter is then carefully inserted into the femoral artery, gently manipulated to simulate the arterial revascularization procedures used in humans, and removed. The bleeding is stopped by ligation. The skin fold is restored by sutures.
By one month after injury maximum restenosis is measured is achieved. The degree of restenosis is measured by two indices, the intima/media (I/M) ratio and the percentage of lumenal narrowing. […]
Thirty six week old ApoE-knockout mice were used and given the following dietary regimen and treatment: Group 1-western type diet (containing 42% by calories % fat and 0.15% (w/w) cholesterol); Group 2-western type diet plus aspirin at a concentration of 300 mg/kg diet/day and Group 3-western type diet plus Sulindac at a concentration of 300 mg/kg diet/day. […] The body weight was monitored on a weekly basis. […]

SMILES: CSc1ccc(/C=C2/C(C)=C(CC(=O)O)c3cc(F)ccc32)cc1 [sulfide, Sulindac sulfide]
- inhibition of cyclooxygenase (cyclooxygenase): potent inhibitory agent of cyclooxygenase

SMILES: COc1ccc2c(c1)c(CC(=O)O)c(C)n2C(=O)c1ccc(Cl)cc1 [indomethacin]
- morphology of HT-29 cells [1]: altered morphology
- proliferation of HT-29 cells [1]: reduced proliferation

SMILES: CC(=O)Oc1ccccc1C(=O)O [aspirin]
- morphology of HT-29 cells [1]: altered morphology
- proliferation of HT-29 cells [1]: reduced proliferation
- development of atherosclerotic lesion / atherosclerotic index (ApoE-deficient mice): inhibited the atherosclerotic index but to a lesser extent than observed in the group treated with Sulindac
- level of cholesterol in the plasma (ApoE-deficient mice): reduced the level of cholesterol in the plasma

SMILES: CN1C(C(=O)Nc2ccccn2)=C(O)c2ccccc2S1(=O)=O [piroxicam]
- morphology of HT-29 cells [1]: altered morphology
- proliferation of HT-29 cells [1]: reduced proliferation
- antiproliferative effect [2]: antiproliferative effect independent of prostaglandin synthesis

SMILES: CC1=C(CC(=O)O)c2cc(F)ccc2/C1=C\c1ccc([S+](C)[O-])cc1 (stereo not drawn) [Sulindac]
- morphology of HT-29 cells [1]: altered morphology
- proliferation of HT-29 cells [1]: reduced proliferation
- arterial narrowing after mechanical arterial injury (ApoE-knockout mice): narrowing of the artery was not as marked
- smooth muscle cell proliferation after mechanical arterial injury (ApoE-knockout mice): much less proliferation of smooth muscle cells
- development of atherosclerotic lesion / atherosclerotic index (ApoE-deficient mice): significantly inhibited
- level of cholesterol in the plasma (ApoE-deficient mice): reduced the level of cholesterol in the plasma
- antiproliferative effect [2]: antiproliferative effect independent of prostaglandin synthesis

SMILES: CC1=C(CC(=O)O)c2cc(F)ccc2/C1=C\c1ccc(S(C)(=O)=O)cc1 [sulfone, Sulindac sulfone]
- inhibition of cyclooxygenase (cyclooxygenase): does not inhibit cyclooxygenase
